Key:
Format in all cases: physicochemical
[1] = Solid form conversion on storage or exposure to humidity
Experimental: Form HI of Compound I di-tosylate salt was prepared during the process of drying a wet sample of Compound I di-tosylate salt, Form I, under ambient conditions. […] Form HI can also be generated by purging humidified air (e.g., 60-85% RH) through Form I solid.
Form HIII was prepared by drying Form HI on Vapor Sorption Analyzer (TA Instruments VTI-SA^+) at 40° C. with 0% RH N2 for 3 h and then exposing it to humidity at about 30-50% RH at 25° C. for 1 day.
Form DH was prepared by drying Form HI on Vapor Sorption Analyzer (TA Instruments VTI-SA*) at 25° C. with 0% RH N2 for 2 days.

[2] = Dynamic vapor sorption (DVS) analysis; conditions: 25° C.; for Hygroscopicity (DVS adsorption/desorption isotherm): bis(4-methylbenzenesulfonate)
Experimental: (§1) Form I was characterized by DVS. The DVS analysis was performed on a TA Instruments Vapor Sorption Analyzer, model VTI-SA^+. The sample was pre-dried on VTI at 50° C. with 0% RH N2 for 1 h. Then the moisture uptake profile was completed in one cycle in 5% RH increments with adsorption from 0% RH to 95% RH followed by desorption in 5% increments from 95% to 5% RH. The equilibration criteria were 0.0050 wt % in 5 minutes with a maximum equilibration time of 180 minutes. All adsorption and desorption were performed at 25° C.
as §1, with “Form HI” for “Form I”, “The” for “The sample was pre-dried on VTI at 50° C. with 0% RH N2 for 1 h. Then the”, “from 35%” for “from 0%”, “were 0.0010” for “were 0.0050”, “C. No pre-drying step was applied for the sample.” for “C.”
Form DH was characterized by DVS. The DVS analysis was performed on a TA Instruments Vapor Sorption Analyzer, model VTI-SA^+. Form DH was generated by pre-drying Form HI on VTI at 40° C. with 0% RH N2 for 3 h. Then the moisture uptake profile was completed in one cycle in 5% RH increments with adsorption from 0% RH to 95% RH followed by desorption in 5% increments from 95% to […]. The equilibration criteria were 0.0010 wt % in 5 minutes with a maximum equilibration time of 180 minutes. All adsorption and desorption were performed at 25° C.

[3] = Physical stability of Form HI under different humidity conditions
Experimental: Physical stability of Form HI was studied under different humidity conditions. The humidity was controlled at 25° C. using Vapor Sorption Analyzer (TA Instruments, Model VTI-SA*). Approximately 20 mg of Form HI in the sample holder was placed inside the humidity chamber of the instrument and held under constant humidity. A sample in an open glass vial was also set up under ambient conditions. After a certain period of time, the sample was removed and characterized by XRPD, DSC, and TGA. Weight loss by TGA was mostly associated with loss of water. The experimental parameters of XRPD, DSC, and TGA are analogous to those in Example 6 for Form HI.
Form HI was stable for 10 days under humidity conditions of 10-85% RH and was stable for 60 days under ambient conditions. […] The table below provides the data for the physical stability of Form HI at 25° C. (open vial).

[4] = Concentration of saturated solution in ethanol
Experimental: In one experiment, Form IIIa was prepared by adding 0.4 mL of saturated solution of Form I in ethanol (60 mg/mL) to 3.0 mL of IPAc. The resulting solid was filtered. Form IIIa was also prepared according to the procedure set forth in Example 13 using EtOH/IPAc as a solvent pair.
In one experiment, Form X was prepared by adding 0.3 mL of saturated solution of Form I in ethanol (60 mg/mL) to 2.5 mL of heptane. The resulting solid was filtered. Form X was also prepared according to the procedure set forth in Example 13 using EtOH/heptane as a solvent pair.

[5] = Thermogravimetric analysis (TGA), decomposition; conditions: ramp 20° C. to 600° C. at 20° C./min, nitrogen
Experimental: Form I was characterized by TGA. The TGA was obtained using a TA Instrument Thermogravimetric Analyzer, Model Q500. The general experimental conditions for TGA were: ramp from 20° C. to 600° C. at 20° C./min; nitrogen purge, gas flow at 40 mL/min followed by balance of the purge flow; sample purge flow at 60 mL/min; platinum sample pan. A weight loss of about 3.5% up to 150° C. was observed and believed to be associated with the loss of moisture and residual solvents.

[6] = Competitive slurry experiment, relative stability of polymorph forms; conditions: in butanone and butanone/heptane (1:1)
Experimental: In order to evaluate the relative stability relationship of the various Compound I di-tosylate polymorph forms, a competitive slurry experiment with a mixture of Form I, II, III and IIIa through Form XII was conducted in butanone-heptane at 50° C. according to Procedure 1 below and in butanone at 25° C. according to Procedure 2 below. The mixture of thirteen polymorphs was converted to Form I after stirring in butanone/heptane (1:1) at 50° C. for 6-18 hours and after stirring in butanone at 25° C. for 6-18 hours.
Procedure 1 competitive experiment in butanone-heptane at 50° C.:
Procedure 2 competitive experiment in butanone at 25° C.: […]

[7] = high humidity about 60-85% RH, bis(4-methylbenzenesulfonate)
[8] = 0% RH, 2 days, 25° C., open vial
[9] = 5% RH, 7 days, 25° C., open vial
[10] = 10% RH, 10 days, 25° C., open vial
[11] = 30% RH, 5 days, 25° C., open vial
[12] = 75% RH, 10 days, 25° C., open vial
[13] = 85% RH, 10 days, 25° C., open vial
[14] = 90% RH, 4 days, 25° C., open vial

COCC1(CN[C@@H]2C[C@H]2c2ccccc2)CCN(CC2(C(=O)O)CCC2)CC1 [Form HIII, 1-{[4-(methoxymethyl)-4-({[(1R,2S)-2-phenylcyclopropyl]amino}methyl)piperidin-1-yl]methyl}cyclobutanecarboxylic acid bis(4-methylbenzenesulfonate)]
Solid form change on exposure to humidity [1, 7]: change to Form HI

COCC1(CN[C@@H]2C[C@H]2c2ccccc2)CCN(CC2(C(=O)O)CCC2)CC1 [Form HI, 1-{[4-(methoxymethyl)-4-({[(1R,2S)-2-phenylcyclopropyl]amino}methyl)piperidin-1-yl]methyl}cyclobutanecarboxylic acid bis(4-methylbenzenesulfonate)]
Hygroscopicity (DVS adsorption/desorption isotherm) [2]: slightly hygroscopic | % Wt Loss by TGA (25-120° C.) [3, 8]: 2.30% | DSC (° C.) (Peak Temperature) [3, 8]: 97.5 °C | XRPD (solid form) [3, 8]: Form DH | % Wt Loss by TGA (25-120° C.) [3, 9]: 2.93% | DSC (° C.) (Peak Temperature) [3, 9]: 81.2 °C | XRPD (solid form) [3, 9]: Form HI | % Wt Loss by TGA (25-120° C.) [3, 10]: 5.05% | DSC (° C.) (Peak Temperature) [3, 10]: 82.4 °C | XRPD (solid form) [3, 10]: Form HI | Physical stability ([3]; 10-85% RH, 10 days, 25° C.): stable | % Wt Loss by TGA (25-120° C.) [3, 11]: 5.38% | DSC (° C.) (Peak Temperature) [3, 11]: 80.7 °C | XRPD (solid form) [3, 11]: Form HI | % Wt Loss by TGA (25-120° C.) [3, 12]: 5.30% | DSC (° C.) (Peak Temperature) [3, 12]: 79.8 °C | XRPD (solid form) [3, 12]: Form HI | % Wt Loss by TGA (25-120° C.) [3, 13]: 5.35% | DSC (° C.) (Peak Temperature) [3, 13]: 79.9 °C | XRPD (solid form) [3, 13]: Form HI | Physical stability ([3]; 90% RH, 25° C.): change to Form HII | % Wt Loss by TGA (25-120° C.) [3, 14]: 6.04% | DSC (° C.) (Peak Temperature) [3, 14]: 80.0 °C | XRPD (solid form) ([3]; 90% RH, 4 days, 25° C., open vial, cell wraps over r12-r14: Form HI + Form HII (minor)): Form HI + | % Wt Loss by TGA (25-120° C.) ([3]; 90% RH, 10 days, 25° C., open vial): 9.4% | XRPD (solid form) ([3]; 90% RH, 10 days, 25° C., open vial, cell wraps over r15-r16: Form HI + Form HII): Form HI + | % Wt Loss by TGA (25-120° C.) ([3]; Ambient, 60 days, open vial): 4.77% | DSC (° C.) (Peak Temperature) ([3]; Ambient, 60 days, open vial): 79.8 °C | XRPD (solid form) ([3]; Ambient, 60 days, open vial): Form HI | Physical stability ([3]; ambient conditions, 60 days, open vial): stable | Physical stability ([3]; below 10% RH, 25° C.): de-hydrated

COCC1(CN[C@@H]2C[C@H]2c2ccccc2)CCN(CC2(C(=O)O)CCC2)CC1 [Form DH, 1-{[4-(methoxymethyl)-4-({[(1R,2S)-2-phenylcyclopropyl]amino}methyl)piperidin-1-yl]methyl}cyclobutanecarboxylic acid bis(4-methylbenzenesulfonate)]
Solid form change on exposure to humidity ([1]; about 30-50% RH): change to Form HIII | Solid form change on exposure to humidity [1, 7]: Form HI | Hygroscopicity (DVS adsorption/desorption isotherm) [2]: hygroscopic | Solid form collected after DVS ([2]; after DVS at 85% RH): Form HI

COCC1(CN[C@@H]2C[C@H]2c2ccccc2)CCN(CC2(C(=O)O)CCC2)CC1 [Form I, 1-{[4-(methoxymethyl)-4-({[(1R,2S)-2-phenylcyclopropyl]amino}methyl)piperidin-1-yl]methyl}cyclobutanecarboxylic acid bis(4-methylbenzenesulfonate)]
Solid form change ([1]; drying of wet sample under ambient conditions, atmospheric moisture): changed to crystalline Form HI | Solid form change on storage ([1]; storage 25° C./60% RH): converted to Form HI | Solid form change on storage ([1]; storage 40° C./75% RH): converted to Form HI | Concentration of saturated solution [4]: 60000 µg/mL | Temperature after which significant decomposition starts (TGA) [5]: > 200 °C | Relative stability of polymorphic forms [6]: most stable polymorphic form | Hygroscopicity (DVS adsorption/desorption isotherm) [2]: hygroscopic

— patent US11498900B2, “Salts of an LSD1 inhibitor” (Incyte Corporation, priority 2015, dated 2022)
